From the supplement of paper PMC11781733
Counter-ions that a name gives are not always drawn.

What was measured:
Conditions in all cases: exposure time: 15 min to 3 h acute
Dugesia japonica [1] = assay: crawl-out incidence (% planarians); higher = higher incidence or increase relative to vehicle control
Procedure: (§1)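 Adult asexual Dugesia japonica planarians (1 per well, 48-well plate, n=24 over technical triplicates) were exposed acutely (15 min to 3 h) to each compound (0.5% DMSO or water vehicle) and screened on a robotic platform for crawl-out, stickiness, body shape, phototaxis, noxious-heat scrunching and locomotion endpoints. Binary endpoints are incidence rate x100. Continuous endpoints are the median response normalised to the plate vehicle median, as % change or difference. Negative incidences after vehicle subtraction were set to 0.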

Dugesia japonica [2] = assay: speed in dark vs vehicle (% change vs vehicle); higher = higher incidence or increase relative to vehicle control
Procedure: as §1, with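 “x100 normalised to in-plate vehicle controls.” for “x100.”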

Dugesia japonica [3] = assay: C-shape incidence (% planarians (vehicle-normalised)); higher = higher incidence or increase relative to vehicle control
Procedure: as §1, with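 “x100 normalised to in-plate vehicle controls.” for “x100.”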

Dugesia japonica [4] = assay: corkscrew incidence (% planarians (vehicle-normalised)); higher = higher incidence or increase relative to vehicle control
Procedure: as §1, with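 “x100 normalised to in-plate vehicle controls.” for “x100.”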

Dugesia japonica [5] = assay: stickiness incidence (% planarians (vehicle-normalised)); higher = higher incidence or increase relative to vehicle control
Procedure: as §1, with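 “x100 normalised to in-plate vehicle controls.” for “x100.”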

Dugesia japonica [6] = assay: hyperkinesis incidence (% planarians (vehicle-normalised)); higher = higher incidence or increase relative to vehicle control
Procedure: as §1, with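 “x100 normalised to in-plate vehicle controls.” for “x100.”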

Dugesia japonica [7] = assay: speed first 30 s blue light vs vehicle (% change vs vehicle); higher = higher incidence or increase relative to vehicle control
Procedure: as §1, with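 “x100 normalised to in-plate vehicle controls.” for “x100.”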

Dugesia japonica [8] = assay: speed second 30 s blue light vs vehicle (% change vs vehicle); higher = higher incidence or increase relative to vehicle control
Procedure: as §1, with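 “x100 normalised to in-plate vehicle controls.” for “x100.”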

Dugesia japonica [9] = assay: pharynx extrusion incidence (% planarians (vehicle-normalised)); higher = higher incidence or increase relative to vehicle control
Procedure: as §1, with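 “x100 normalised to in-plate vehicle controls.” for “x100.”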

Dugesia japonica [10] = assay: loss of phototaxis incidence (% planarians (vehicle-normalised)); higher = higher incidence or increase relative to vehicle control
Procedure: as §1, with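 “x100 normalised to in-plate vehicle controls.” for “x100.”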

Dugesia japonica [11] = assay: total locomotor bursts minus vehicle (bursts difference vs vehicle); higher = higher incidence or increase relative to vehicle control
Procedure: as §1, with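 “x100 normalised to in-plate vehicle controls.” for “x100.”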

Dugesia japonica [12] = assay: noxious heat displacement strength vs vehicle (% change vs vehicle); higher = higher incidence or increase relative to vehicle control
Procedure: as §1, with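 “x100 normalised to in-plate vehicle controls.” for “x100.”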

Dugesia japonica [13] = assay: contracted body shape incidence (% planarians (vehicle-normalised)); higher = higher incidence or increase relative to vehicle control
Procedure: as §1, with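 “x100 normalised to in-plate vehicle controls.” for “x100.”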

Dugesia japonica [14] = assay: anxiety (time in outer well region) vs vehicle (% change vs vehicle); higher = higher incidence or increase relative to vehicle control
Procedure: as §1, with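 “x100 normalised to in-plate vehicle controls.” for “x100.”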

Dugesia japonica [15] = assay: any abnormal body shape incidence (% planarians (vehicle-normalised)); higher = higher incidence or increase relative to vehicle control
Procedure: as §1, with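 “x100 normalised to in-plate vehicle controls.” for “x100.”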

Dugesia japonica [16] = assay: resting fraction in dark vs vehicle (difference in fraction x100 vs vehicle); higher = higher incidence or increase relative to vehicle control
Procedure: as §1, with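 “x100 normalised to in-plate vehicle controls.” for “x100.”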

Dugesia japonica [17] = assay: loss of heat-induced scrunching incidence (% planarians (vehicle-normalised)); higher = higher incidence or increase relative to vehicle control
Procedure: as §1, with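 “x100 normalised to in-plate vehicle controls.” for “x100.”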

Dugesia japonica [18] = assay: resting fraction in blue light vs vehicle (difference in fraction x100 vs vehicle); higher = higher incidence or increase relative to vehicle control
Procedure: as §1, with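 “x100 normalised to in-plate vehicle controls.” for “x100.”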

Structure (SMILES)	crawl-out incidence (Dugesia japonica [1])	speed in dark (Dugesia japonica [2])	C-shape incidence (Dugesia japonica [3])	corkscrew incidence (Dugesia japonica [4])	stickiness incidence (Dugesia japonica [5])	hyperkinesis incidence (Dugesia japonica [6])	speed first 30 s blue light (Dugesia japonica [7])	speed second 30 s blue light (Dugesia japonica [8])	pharynx extrusion incidence (Dugesia japonica [9])	loss of phototaxis incidence (Dugesia japonica [10])	total locomotor bursts minus vehicle (Dugesia japonica [11])	noxious heat displacement strength (Dugesia japonica [12])	contracted body shape incidence (Dugesia japonica [13])	anxiety (Dugesia japonica [14])	any abnormal body shape incidence (Dugesia japonica [15])	resting fraction in dark (Dugesia japonica [16])	loss of heat-induced scrunching incidence (Dugesia japonica [17])	resting fraction in blue light (Dugesia japonica [18])
CNCC[C@H](Oc1cccc2ccccc12)c1cccs1 [s-duloxetine] (10 µM)	0	124	0	0	≤ 0	75	142	34.6	0	50	-13	-38	0	-1.76	75	-32.6	8.33	-12.1
CN1C(=O)CN=C(c2ccccc2)c2cc(Cl)ccc21 [diazepam] (3.16 µM)	0	16.7	0	0	≤ 0	0	21.1	-4.64	0	41.7	-3	-6.66	0	-3.35	0	-5.99	29.2	-0.17
CNCC[C@H](Oc1cccc2ccccc12)c1cccs1 [s-duloxetine] (31.6 µM)	4.17	-18.7	34.8	0	≤ 0	39.1	-45.9	-62.7	26.1	47.8	61	-61.5	4.35	-51.2	73.9	-4.51	65.2	7.14
CN(C)CCCN1c2ccccc2CCc2ccccc21 [imipramine] (3.16 µM)	0	-44.7	0	0	≤ 0	0	-51.6	-43.6	0	≤ 0	11	-7.92	0	3.55	0	12.6	≤ 0	6.5
CNCCC(Oc1ccc(C(F)(F)F)cc1)c1ccccc1 (stereo not given) [fluoxetine hydrochloride] (10 µM)	4.17	-41.5	0	0	≤ 0	0	-37.3	-39.7	0	≤ 0	1	-40	0	10.3	0	-0.39	8.7	-1.17
CN1CC(=O)N=C1NC(=O)Nc1cccc(Cl)c1 [fenobam] (100 µM)	0	-18.5	0	0	≤ 0	0	-26.8	-27	0	≤ 0	2	-43	0	-2.96	0	0	8.33	0.38
CN1CCN(CCCN2c3ccccc3Sc3ccc(Cl)cc32)CC1 [prochloroperazine] (31.6 µM)	20.8	-65.5	34.8	4.35	≤ 0	26.1	-89.8	-83.6	0	63.2	-3	-47.9	21.7	24	73.9	60.9	65.2	75.3
CN1CCN(C2=Nc3cc(Cl)ccc3Nc3ccccc32)CC1 [clozapine] (10 µM)	0	-75.7	4.17	4.17	25	54.2	-89.8	-90.5	0	29.2	15.2	-39.6	8.33	-100	58.3	73.9	75	70.9
CN1CCN(C2=Nc3cc(Cl)ccc3Nc3ccccc32)CC1 [clozapine] (100 µM)	0	-79.5	57.1	9.52	≤ 0	23.8	-96.9	-96.2	0	62.5	-4.5	-29.6	28.6	-11.2	81	77.6	79.2	87.8
CN[C@H]1CC[C@@H](c2ccc(Cl)c(Cl)c2)c2ccccc21 [sertraline hydrochloride] (31.6 µM)	4.17	-31.9	0	0	4.35	4.35	-36	-42.3	0	≤ 0	6.5	3.64	0	1.57	4.35	-19.3	47.8	4.64
Cc1cc2c(s1)Nc1ccccc1N=C2N1CCN(C)CC1 [olanzapine] (100 µM)	41.7	-67.8	13.6	18.2	27.3	45.5	-93.9	-91.1	0	7.14	-2.75	-50.1	27.3	18.3	77.3	79.9	68.2	76
CN(C)CCCC1(c2ccc(F)cc2)OCc2cc(C#N)ccc21 (stereo not given) [citalopram hydrobromide] (316 µM)	0	10.9	0	0	8.7	13	1.47	6.83	0	4.35	-3.5	-25.1	0	12.2	13	1.16	13	0.559
O=C1CC2(CCCC2)CC(=O)N1CCCCN1CCN(c2ncccn2)CC1 [buspirone] (31.6 µM)	0	-11.1	0	0	16.7	16.7	-64.5	-74.1	0	54.2	3.5	-57	0	7.76	16.7	3.7	62.5	34.3
CN[C@H]1CC[C@@H](c2ccc(Cl)c(Cl)c2)c2ccccc21 [sertraline hydrochloride] (10 µM)	0	24.4	0	0	4.17	0	-16.8	0.96	0	≤ 0	-9.5	27	0	1.96	0	-1.57	33.3	0.73
CN(C)CCCC1(c2ccc(F)cc2)OCc2cc(C#N)ccc21 (stereo not given) [citalopram hydrobromide] (1000 µM)	0	-48.7	0	0	≤ 0	83.3	-57.3	-71.1	0	16.7	40.2	-42.7	0	11.2	83.3	17.8	8.33	16.8
